In the CheMixHub viscosity set:
± gives the uncertainty stated by the source.

Assay: xn = mol fraction of the nth substance listed

OCCO + O
Conditions	viscosity [mPa·s]
293.15 K, 100 kPa, x1 = 0.3	5.035 ± 0.015
293.15 K, 101 kPa, x1 = 0.0744	1.724 ± 0.023
293.15 K, 101 kPa, x1 = 0.1209	2.258 ± 0.03
293.15 K, 101.3 kPa, x1 = 0.031	1.28 ± 0.03
293.15 K, 101.3 kPa, x1 = 0.068	1.79 ± 0.05
293.15 K, 101.3 kPa, x1 = 0.11	1.9 ± 0.05
293.15 K, 101.3 kPa, x1 = 0.14	2.47 ± 0.07
293.15 K, 101.3 kPa, x1 = 0.16	2.8 ± 0.08
293.15 K, 101.3 kPa, x1 = 0.19	3.14 ± 0.08
293.15 K, 101.3 kPa, x1 = 0.22	3.66 ± 0.1
293.15 K, 101.3 kPa, x1 = 0.26	4.09 ± 0.11
293.15 K, 101.3 kPa, x1 = 0.3	4.68 ± 0.13
293.15 K, 101.3 kPa, x1 = 0.4	6.5 ± 0.18
293.15 K, 101.3 kPa, x1 = 0.54	9.03 ± 0.24
293.15 K, 101.3 kPa, x1 = 0.72	13.6 ± 0.4
298.15 K, 101 kPa, x1 = 0.0414	1.22 ± 0.01
298.15 K, 101 kPa, x1 = 0.118	1.97 ± 0.02
298.15 K, 101 kPa, x1 = 0.1553	2.36 ± 0.02
298.15 K, 101 kPa, x1 = 0.3385	4.73 ± 0.03
298.15 K, 101 kPa, x1 = 0.3521	4.96 ± 0.04
298.15 K, 101 kPa, x1 = 0.4133	5.94 ± 0.04
298.15 K, 101 kPa, x1 = 0.5333	7.96 ± 0.06
298.15 K, 101 kPa, x1 = 0.6376	9.9 ± 0.07
298.15 K, 101 kPa, x1 = 0.7762	12.56 ± 0.09
298.15 K, 101 kPa, x1 = 0.8769	14.49 ± 0.1
298.15 K, 101 kPa, x1 = 0.907	15.05 ± 0.1
298.15 K, 101 kPa, x2 = 0.0034	16.94 ± 0.12
298.15 K, 101.33 kPa, x1 = 0.1753	2.58 ± 0.07
298.15 K, 101.33 kPa, x1 = 0.3316	4.73 ± 0.12
298.15 K, 101.33 kPa, x1 = 0.5615	8.36 ± 0.22
303.15 K, 101.3 kPa, x1 = 0.031	0.92 ± 0.03
303.15 K, 101.3 kPa, x1 = 0.068	1.27 ± 0.03
303.15 K, 101.3 kPa, x1 = 0.11	1.43 ± 0.04
303.15 K, 101.3 kPa, x1 = 0.14	1.87 ± 0.05
303.15 K, 101.3 kPa, x1 = 0.16	2.09 ± 0.06
303.15 K, 101.3 kPa, x1 = 0.19	2.34 ± 0.06
303.15 K, 101.3 kPa, x1 = 0.22	2.7 ± 0.07
303.15 K, 101.3 kPa, x1 = 0.26	2.99 ± 0.08
303.15 K, 101.3 kPa, x1 = 0.3	3.38 ± 0.09
303.15 K, 101.3 kPa, x1 = 0.4	4.59 ± 0.12
303.15 K, 101.3 kPa, x1 = 0.54	6.29 ± 0.17
303.15 K, 101.3 kPa, x1 = 0.72	9.22 ± 0.25
303.15 K, 101.33 kPa, x1 = 0.0003	0.778 ± 0.011
303.15 K, 101.33 kPa, x1 = 0.0009	0.781 ± 0.011
303.15 K, 101.33 kPa, x1 = 0.0059	0.808 ± 0.011
303.15 K, 101.33 kPa, x1 = 0.01	0.834 ± 0.011
303.15 K, 101.33 kPa, x1 = 0.0136	0.856 ± 0.012
303.15 K, 101.33 kPa, x1 = 0.0616	1.18 ± 0.015
303.15 K, 101.33 kPa, x1 = 0.1054	1.529 ± 0.02
303.15 K, 101.33 kPa, x1 = 0.1634	2.03 ± 0.025
303.15 K, 101.33 kPa, x1 = 0.1935	2.348 ± 0.029
303.15 K, 101.33 kPa, x1 = 0.2969	3.435 ± 0.042
303.15 K, 101.33 kPa, x1 = 0.3955	4.638 ± 0.056
303.15 K, 101.33 kPa, x1 = 0.4982	6 ± 0.069
303.15 K, 101.33 kPa, x1 = 0.5873	7.264 ± 0.08
303.15 K, 101.33 kPa, x1 = 0.6734	8.539 ± 0.092
303.15 K, 101.33 kPa, x1 = 0.7944	10.39 ± 0.11
303.15 K, 101.33 kPa, x1 = 0.8719	11.58 ± 0.12
303.15 K, 101.33 kPa, x1 = 0.941	12.69 ± 0.13
303.15 K, 101.33 kPa, x2 = 0.0134	13.35 ± 0.14
308.15 K, 101.33 kPa, x1 = 0.0003	0.706 ± 0.01
308.15 K, 101.33 kPa, x1 = 0.0009	0.709 ± 0.01
308.15 K, 101.33 kPa, x1 = 0.0059	0.733 ± 0.01
308.15 K, 101.33 kPa, x1 = 0.01	0.752 ± 0.01
308.15 K, 101.33 kPa, x1 = 0.0136	0.774 ± 0.011
308.15 K, 101.33 kPa, x1 = 0.0616	1.044 ± 0.014
308.15 K, 101.33 kPa, x1 = 0.1054	1.326 ± 0.017
308.15 K, 101.33 kPa, x1 = 0.1634	1.756 ± 0.022
308.15 K, 101.33 kPa, x1 = 0.1935	2.016 ± 0.025
308.15 K, 101.33 kPa, x1 = 0.2969	2.919 ± 0.036
308.15 K, 101.33 kPa, x1 = 0.3955	3.905 ± 0.047
308.15 K, 101.33 kPa, x1 = 0.4982	5.004 ± 0.06
308.15 K, 101.33 kPa, x1 = 0.5873	6.04 ± 0.069
308.15 K, 101.33 kPa, x1 = 0.6734	7.077 ± 0.079
308.15 K, 101.33 kPa, x1 = 0.7944	8.555 ± 0.092
308.15 K, 101.33 kPa, x1 = 0.8719	9.501 ± 0.1
308.15 K, 101.33 kPa, x1 = 0.941	10.35 ± 0.11
308.15 K, 101.33 kPa, x2 = 0.2029	8.051 ± 0.17
308.15 K, 101.33 kPa, x2 = 0.3005	6.899 ± 0.15
308.15 K, 101.33 kPa, x2 = 0.3986	5.846 ± 0.13
308.15 K, 101.33 kPa, x2 = 0.5012	4.779 ± 0.11
308.15 K, 101.33 kPa, x2 = 0.5999	3.798 ± 0.088
308.15 K, 101.33 kPa, x2 = 0.6987	2.866 ± 0.067
308.15 K, 101.33 kPa, x2 = 0.8008	1.998 ± 0.048
308.15 K, 101.33 kPa, x2 = 0.8947	1.315 ± 0.033
313.15 K, 101.3 kPa, x1 = 0.031	0.8 ± 0.02
313.15 K, 101.3 kPa, x1 = 0.068	1.04 ± 0.03
313.15 K, 101.3 kPa, x1 = 0.11	1.08 ± 0.03
313.15 K, 101.3 kPa, x1 = 0.14	1.46 ± 0.04
313.15 K, 101.3 kPa, x1 = 0.16	1.61 ± 0.04
313.15 K, 101.3 kPa, x1 = 0.19	1.8 ± 0.05
313.15 K, 101.3 kPa, x1 = 0.22	2.04 ± 0.05
313.15 K, 101.3 kPa, x1 = 0.3	2.54 ± 0.07
313.15 K, 101.3 kPa, x1 = 0.4	3.4 ± 0.09
313.15 K, 101.3 kPa, x1 = 0.54	4.58 ± 0.12
313.15 K, 101.3 kPa, x1 = 0.72	6.53 ± 0.17
323.15 K, 101.3 kPa, x1 = 0.031	0.67 ± 0.02
323.15 K, 101.3 kPa, x1 = 0.068	0.82 ± 0.02
323.15 K, 101.3 kPa, x1 = 0.11	0.9 ± 0.02
323.15 K, 101.3 kPa, x1 = 0.14	1.21 ± 0.03
323.15 K, 101.3 kPa, x1 = 0.16	1.3 ± 0.03
323.15 K, 101.3 kPa, x1 = 0.19	1.44 ± 0.04
323.15 K, 101.3 kPa, x1 = 0.22	1.62 ± 0.04
323.15 K, 101.3 kPa, x1 = 0.26	1.81 ± 0.05
323.15 K, 101.3 kPa, x1 = 0.3	1.97 ± 0.05
323.15 K, 101.3 kPa, x1 = 0.4	2.59 ± 0.07
323.15 K, 101.3 kPa, x1 = 0.54	3.46 ± 0.09
323.15 K, 101.3 kPa, x1 = 0.72	4.83 ± 0.13
